Read-outs that look alike come from different tables or passages of the source.
Tests used:
[1] = biological target: T1, F. pringlei PEPC (Flaveria pringlei, UniProt Q01647); test: PEPC coupled spectrophotometric assay, C3 PEPC; assay type: biochemical; conditions: IC50 F. pringlei PEPC
T1 construct: the full-length ppcA gene of PEPC from F. trinervia (EMBL-Bank X61304) and F. pringlei (EMBL-Bank Z48966) were cloned in pETEV16b; made in house; host or cells: Escherichia coli BL21-Gold(DE3)
T1 sequence (Q01647 1-967): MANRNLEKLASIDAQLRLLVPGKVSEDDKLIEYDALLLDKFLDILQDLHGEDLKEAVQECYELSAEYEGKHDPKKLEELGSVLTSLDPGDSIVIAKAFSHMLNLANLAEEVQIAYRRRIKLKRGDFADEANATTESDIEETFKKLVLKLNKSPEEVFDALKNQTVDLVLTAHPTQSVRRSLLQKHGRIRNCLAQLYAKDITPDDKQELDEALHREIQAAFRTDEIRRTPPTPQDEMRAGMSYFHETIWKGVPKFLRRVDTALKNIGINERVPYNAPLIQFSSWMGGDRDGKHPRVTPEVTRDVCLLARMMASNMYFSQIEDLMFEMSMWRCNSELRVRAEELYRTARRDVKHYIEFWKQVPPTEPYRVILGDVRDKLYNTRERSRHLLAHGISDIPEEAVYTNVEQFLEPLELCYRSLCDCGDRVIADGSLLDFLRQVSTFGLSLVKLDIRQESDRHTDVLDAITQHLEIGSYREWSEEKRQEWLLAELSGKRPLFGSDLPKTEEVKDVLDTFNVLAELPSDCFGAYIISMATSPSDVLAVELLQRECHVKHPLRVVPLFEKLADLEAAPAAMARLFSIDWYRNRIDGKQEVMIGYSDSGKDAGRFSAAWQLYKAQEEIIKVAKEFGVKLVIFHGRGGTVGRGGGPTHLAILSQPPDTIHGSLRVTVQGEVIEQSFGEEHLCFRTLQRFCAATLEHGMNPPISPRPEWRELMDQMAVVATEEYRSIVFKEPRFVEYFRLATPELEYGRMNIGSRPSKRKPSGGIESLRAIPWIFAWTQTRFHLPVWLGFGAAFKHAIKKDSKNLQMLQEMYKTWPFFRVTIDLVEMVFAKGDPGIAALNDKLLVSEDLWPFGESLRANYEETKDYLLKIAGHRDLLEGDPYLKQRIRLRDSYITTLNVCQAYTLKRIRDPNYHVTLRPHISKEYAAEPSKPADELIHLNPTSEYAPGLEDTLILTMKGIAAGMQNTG
Procedure: The IC50 values of small molecule compounds on F. pringlei and F. trinervia PEPCs were determined using PEPC coupled spectrophotometric assay. The amount of NADH oxidized by NADH-malate dehydrogenase was measured by the decrease in absorbance at 340 nm in a Beckman DU-800 spectrophotometer, thus the value is in proportion to the corresponding substrate conversion of the enzyme. The reaction mixture included the PEPC enzymes (0.05 U), NADH (150 μM), malate dehydrogenase (2 U) and different concentration of compounds in the buffer containing 50 mM HEPES/KOH pH 7.5, 10 mM MgCl2, 10 mM KHCO3 in a final volume of 600 μl at 25 °C. The reactions were started by adding two folds of the Km value of PEP for each enzyme. The data were analyzed using GraFit (Erithacus Software, UK).

[2] = tested on: Corynebacterium glutamicum ATCC13032; test: Bacterial growth in microscale cultivation, C. glutamicum; assay type: cell-based; conditions: for activity at 8 µM / activity at 80 µM / activity at 400 µM / activity at 160 µM / activity at 5 µM / activity at 50 µM / activity at 500 µM / activity at 100 µM / activity at 0.3 µM / activity at 3 µM / activity at 30 µM: Corynebacterium glutamicum; for activity at 8 µM / activity at 80 µM / activity at 400 µM / activity at 160 µM / Lag Phase: relative to control
Procedure: The following bacteria were cultivated in the presence of trans-chalcone derived inhibitors: Corynebacterium glutamicum ATCC13032[43], Escherichia coli K-12 MG1655[44], Pseudomonas putida KT2440[45], and Bacillus subtilis 168[46]. The growth of these bacteria was monitored in flower-well plates shaken at 1200 rpm as backscatter at 620 nm (gain 20) using a BioLector® microscale cultivation system (m2p labs, Baesweiler, Germany). For further experimental details please refer to the Supplementary Information.
medium or the appropriate minimal medium and shaken at 140 rpm overnight. For inoculation of
the main culture, cells equivalent to an optical density at 600 nm of 0.5 (C. glutamicum, E. coli,
and P. putida) or 0.25 (B. subtilis) in 800 µL medium were washed and resuspended in fresh
media. Inhibitor substances were dissolved in DMSO and added to the media to a final
Since the least polar trans-chalcone and 2’-hydroxychalcone precipitated in the growth media at
the highest concentrations, the maximal concentration of these compounds was reduced to 400
µM and 100 µM, respectively. The final backscatter at 620 nm, the growth rate (h-1), and the
duration of the lag phase of all cultures were determined in a BioLector microscale cultivation
system in comparison to negative controls supplemented with the solvent DMSO. A longer lag

Question: For `O=C(/C=C/c1ccccc1)c1ccccc1` [Compound 1, trans-Chalcone], which IC50 [1] is on record?
Answer: 119 ± 4.6 µM

Question: And the activity at 8 µM ([2]; ATCC13032, complex medium, 8 µM, read-out: Final Backscatter)?
Answer: 98.7%

Question: And the activity at 8 µM ([2]; ATCC13032, complex medium, 8 µM, read-out: Growth rate)?
Answer: 105%

Question: And the activity at 80 µM ([2]; ATCC13032, complex medium, 80 µM, read-out: Final Backscatter)?
Answer: 104%

Question: What about the activity at 80 µM ([2]; ATCC13032, complex medium, 80 µM, read-out: Growth rate) of the same molecule?
Answer: 103%

Question: And the activity at 400 µM ([2]; ATCC13032, complex medium, 400 µM, read-out: Final Backscatter)?
Answer: 106%

Question: What about the activity at 400 µM ([2]; ATCC13032, complex medium, 400 µM, read-out: Growth rate) of the same molecule?
Answer: 103%

Question: And the activity at 8 µM ([2]; ATCC13032, minimal medium, 8 µM, read-out: Final Backscatter)?
Answer: 99.7%

Question: What about the activity at 8 µM ([2]; ATCC13032, minimal medium, 8 µM, read-out: Growth rate) of the same molecule?
Answer: 99.3%

Question: What about the activity at 80 µM ([2]; ATCC13032, minimal medium, 80 µM, read-out: Final Backscatter) of the same molecule?
Answer: 97%

Question: And the activity at 80 µM ([2]; ATCC13032, minimal medium, 80 µM, read-out: Growth rate)?
Answer: 97.1%

Question: What about the activity at 160 µM ([2]; ATCC13032, minimal medium, 160 µM, read-out: Final Backscatter) of the same molecule?
Answer: 98.3%

Question: And the activity at 160 µM ([2]; ATCC13032, minimal medium, 160 µM, read-out: Growth rate)?
Answer: 92.5%

Question: What about the activity at 400 µM ([2]; ATCC13032, minimal medium, 400 µM, read-out: Final Backscatter) of the same molecule?
Answer: 99.5%

Question: What about the activity at 400 µM ([2]; ATCC13032, minimal medium, 400 µM, read-out: Growth rate) of the same molecule?
Answer: 87.5%

Question: And the “Influence on bacterial growth” value ([2]; Minimal medium, highest concentration tested (10× IC50) if not stated otherwise)?
Answer: μ↓ (5× IC50)

Question: What about the “Lag Phase” value ([2]; complex medium, 8 µM) of the same molecule?
Answer: 100,0%

Question: And the “Lag Phase” value ([2]; complex medium, 80 µM)?
Answer: 99,5%

Question: And the “Lag Phase” value ([2]; complex medium, 400 µM)?
Answer: 103,7%

Question: And the “Lag Phase” value ([2]; minimal medium, 8 µM)?
Answer: 100,0%

Question: What about the “Lag Phase” value ([2]; minimal medium, 80 µM) of the same molecule?
Answer: 102,3%

Question: What about the “Lag Phase” value ([2]; minimal medium, 160 µM) of the same molecule?
Answer: 109,9%

Question: What about the “Lag Phase” value ([2]; minimal medium, 400 µM) of the same molecule?
Answer: 113,6%

Question: With `O=C(/C=C/c1ccccc1)c1ccccc1O` [Compound 2, 2′-Hydroxychalcone] as the molecule, how does the IC50 [1] read?
Answer: 76.3 ± 1.9 µM

Question: And the activity at 5 µM ([2]; ATCC13032, read-out: Final Backscatter, complex medium, 5 µM, relative to control)?
Answer: 101%

Question: And the activity at 50 µM ([2]; ATCC13032, read-out: Final Backscatter, complex medium, 50 µM, relative to control)?
Answer: 105%

Question: And the activity at 500 µM ([2]; ATCC13032, read-out: Final Backscatter, complex medium, 500 µM, relative to control)?
Answer: 111%

Question: And the activity at 5 µM ([2]; ATCC13032, read-out: Final Backscatter, minimal medium, 5 µM, relative to control)?
Answer: 102%

Question: And the activity at 50 µM ([2]; ATCC13032, read-out: Final Backscatter, minimal medium, 50 µM, relative to control)?
Answer: 99.6%

Question: And the activity at 100 µM ([2]; ATCC13032, read-out: Final Backscatter, minimal medium, 100 µM, relative to control)?
Answer: 101%

Question: And the activity at 500 µM ([2]; ATCC13032, read-out: Final Backscatter, minimal medium, 500 µM, relative to control)?
Answer: 102%

Question: And the activity at 5 µM ([2]; ATCC13032, read-out: Growth rate, complex medium, 5 µM, relative to control)?
Answer: 96.2%

Question: And the activity at 50 µM ([2]; ATCC13032, read-out: Growth rate, complex medium, 50 µM, relative to control)?
Answer: 91.5%

Question: And the activity at 500 µM ([2]; ATCC13032, read-out: Growth rate, complex medium, 500 µM, relative to control)?
Answer: 102%

Question: What about the activity at 5 µM ([2]; ATCC13032, read-out: Growth rate, minimal medium, 5 µM, relative to control) of the same molecule?
Answer: 101%

Question: And the activity at 50 µM ([2]; ATCC13032, read-out: Growth rate, minimal medium, 50 µM, relative to control)?
Answer: 99.6%

Question: What about the activity at 100 µM ([2]; ATCC13032, read-out: Growth rate, minimal medium, 100 µM, relative to control) of the same molecule?
Answer: 101%

Question: What about the activity at 500 µM ([2]; ATCC13032, read-out: Growth rate, minimal medium, 500 µM, relative to control) of the same molecule?
Answer: 92.9%

Question: And the “Lag Phase” value ([2]; complex medium, 5 µM)?
Answer: 98,4%

Question: And the “Lag Phase” value ([2]; complex medium, 50 µM)?
Answer: 100,0%

Question: And the “Lag Phase” value ([2]; complex medium, 500 µM)?
Answer: 101,1%

Question: And the “Lag Phase” value ([2]; minimal medium, 5 µM)?
Answer: 98,7%

Question: What about the “Lag Phase” value ([2]; minimal medium, 50 µM) of the same molecule?
Answer: 102,6%

Question: What about the “Lag Phase” value ([2]; minimal medium, 100 µM) of the same molecule?
Answer: 104,2%

Question: What about the “Lag Phase” value ([2]; minimal medium, 500 µM) of the same molecule?
Answer: 124,3%

Question: Which activity at 0.3 µM ([2]; ATCC13032, read-out: Final Backscatter, complex medium, 0.3 µM, relative to control) does the source give for `O=C(/C=C/c1ccccc1)c1ccc(O)c(O)c1O` [Compound 10, 2′,3′,4′-Trihydroxychalcone] here?
Answer: 105%

Question: And the activity at 3 µM ([2]; ATCC13032, read-out: Final Backscatter, complex medium, 3 µM, relative to control)?
Answer: 109%

Question: And the activity at 30 µM ([2]; ATCC13032, read-out: Final Backscatter, complex medium, 30 µM, relative to control)?
Answer: 110%

Question: And the activity at 0.3 µM ([2]; ATCC13032, read-out: Final Backscatter, minimal medium, 0.3 µM, relative to control)?
Answer: 103%

Question: And the activity at 3 µM ([2]; ATCC13032, read-out: Final Backscatter, minimal medium, 3 µM, relative to control)?
Answer: 104%

Question: And the activity at 30 µM ([2]; ATCC13032, read-out: Final Backscatter, minimal medium, 30 µM, relative to control)?
Answer: 104%

Question: What about the activity at 0.3 µM ([2]; ATCC13032, read-out: Growth rate, complex medium, 0.3 µM, relative to control) of the same molecule?
Answer: 106%

Question: What about the activity at 3 µM ([2]; ATCC13032, read-out: Growth rate, complex medium, 3 µM, relative to control) of the same molecule?
Answer: 112%

Question: What about the activity at 30 µM ([2]; ATCC13032, read-out: Growth rate, complex medium, 30 µM, relative to control) of the same molecule?
Answer: 118%

Question: And the activity at 0.3 µM ([2]; ATCC13032, read-out: Growth rate, minimal medium, 0.3 µM, relative to control)?
Answer: 104%

Question: And the activity at 3 µM ([2]; ATCC13032, read-out: Growth rate, minimal medium, 3 µM, relative to control)?
Answer: 103%

Question: What about the activity at 30 µM ([2]; ATCC13032, read-out: Growth rate, minimal medium, 30 µM, relative to control) of the same molecule?
Answer: 99.3%

Question: And the “Lag Phase” value ([2]; complex medium, 0.3 µM)?
Answer: 100,0%

Question: And the “Lag Phase” value ([2]; complex medium, 3 µM)?
Answer: 97,8%

Question: And the “Lag Phase” value ([2]; complex medium, 30 µM)?
Answer: 94,9%

Question: And the “Lag Phase” value ([2]; minimal medium, 0.3 µM)?
Answer: 97,9%

Question: What about the “Lag Phase” value ([2]; minimal medium, 3 µM) of the same molecule?
Answer: 98,6%

Question: And the “Lag Phase” value ([2]; minimal medium, 30 µM)?
Answer: 102,1%

Source: article PMC4893628, “Chalcone-based Selective Inhibitors of a C4 Plant Key Enzyme as Novel Potential Herbicides” (Scientific Reports, 2016)
